Experimental data as given in patent publication US20030139361A1, “Drug for gene therapy” (priority 2000, published 2003).

Test system: spleen cells derived from PVG rat and mitomycin-treated DA rat
Test: Lymphocyte mixed culture test (BrdU incorporation)
Format: cell-based
Details: 4 days culture, BrdU 10 μM for last 16 hours; FIG. 2
Protocol: To study the immunosuppressive activity of the human IDO protein prepared in Example 10, a lymphocyte mixed culture test was carried out. The spleen cells derived from a non-treated PVG rat and the spleen cells derived from a DA rat treated with 25 μg/ml of mitomycin (SIGMA-Aldrich Corporation) were seeded on a U bottom 96-well plate (NUNC Inc.) at 5×10^4/well and at 8×10^6/well, respectively. The IDO protein was then added and culturing was done for 4 days. Sixteen hours before the finish of culturing 5-bromo-2′deoxyuridine (BrdU) was added at a final concentration of 10 μM. The amount of BrdU incorporated into the intracellular DNA was quantified using a BrdU Labeling & Detection Kit III (Roche Diagnostics Inc.).

human IDO protein: Recombinant human indoleamine 2,3-dioxygenase protein prepared in Example 10 from E. coli
immunosuppressive activity (amount of BrdU incorporated into intracellular DNA): showed the immunosuppressive activity in a concentration-dependent manner
